Data as given in PubChem BioAssay (NCI).
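In this assay, cells in 96-well plates receive the compound at five concentrations for 48 hours. Endpoints are linearly interpolated between the surrounding concentrations. GI50: concentration for 50% inhibition of growth. TGI is the concentration that stops growth completely.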

Columns and labels:
Assay in all cases: DTP human tumour cell line panel, 48 h
TK-10 renal = tested on: TK-10 renal
CCRF-CEM leukemia = tested on: CCRF-CEM leukemia
ACHN renal = tested on: ACHN renal
UACC-257 melanoma = tested on: UACC-257 melanoma
A498 renal = tested on: A498 renal
PC-3 prostate = tested on: PC-3 prostate
OVCAR-8 ovarian = tested on: OVCAR-8 ovarian
SF-295 CNS = tested on: SF-295 CNS
HOP-62 NSCLC = tested on: HOP-62 NSCLC
UACC-62 melanoma = tested on: UACC-62 melanoma

Row | SMILES | GI50 (TK-10 renal) [µM] | TGI (TK-10 renal) [µM] | GI50 (CCRF-CEM leukemia) [µM] | TGI (CCRF-CEM leukemia) [µM] | GI50 (ACHN renal) [µM] | TGI (ACHN renal) [µM] | GI50 (UACC-257 melanoma) [µM] | TGI (UACC-257 melanoma) [µM] | GI50 (A498 renal) [µM] | TGI (A498 renal) [µM] | GI50 (PC-3 prostate) [µM] | TGI (PC-3 prostate) [µM] | GI50 (OVCAR-8 ovarian) [µM] | TGI (OVCAR-8 ovarian) [µM] | GI50 (SF-295 CNS) [µM] | TGI (SF-295 CNS) [µM] | GI50 (HOP-62 NSCLC) [µM] | TGI (HOP-62 NSCLC) [µM] | GI50 (UACC-62 melanoma) [µM] | TGI (UACC-62 melanoma) [µM]
1 | O=C1/C(=C/c2ccc(Cl)c(Cl)c2)CN(C(=O)C(Cl)Cl)C/C1=C\c1ccc(Cl)c(Cl)c1 | 0.353 | 1.23 | 0.0372 | > 100 | 0.179 | 0.474 | 0.666 | 2.24 | 0.216 | 0.664 | 0.0737 | 0.712 | 0.0505 | 1.51 | 0.154 | 0.704 | 0.271 | 0.972 | 0.197 | 0.459
2 | CCN1CCN(c2nc(C)cc(N(CCCNc3ccnc4cc(Cl)ccc34)Cc3ccc4c(c3)OCO4)n2)CC1 | 1.74 | 3.21 | 1.81 | 7.14 | 2.03 | 4.15 | 1.8 | 3.49 | 1.38 | 4.23 | 2.43 | 11 | 2.12 | 6.06 | 1.81 | 3.39 | 1.46 | 4.09 | 1.81 | 3.32
